Where two headings read alike, the source gives them in different places. Positions of bridges follow the written chain, without caps; N, C: chain ends. Non-standard residues stand in square brackets, D forms with d. Residues, ends and D or L forms follow the SMILES beside them. ξ: configuration not given here. Phe(F5) = N[C@@H](Cc1c(F)c(F)c(F)c(F)c1F)C(=O)O; Phe(3-OMe) = COc1cccc(C[C@H](N)C(=O)O)c1; Phe(4-F) = N[C@@H](Cc1ccc(F)cc1)C(=O)O; 2Nal = N[C@@H](Cc1ccc2ccccc2c1)C(=O)O; Bta = N[C@@H](Cc1csc2ccccc12)C(=O)O; Hyp = O=C(O)[C@@H]1C[C@@H](O)CN1; NMeF = CN[C@@H](Cc1ccccc1)C(=O)O; dNMeNle = CCCC[C@@H](NC)C(=O)O; NMeNle = CCCC[C@H](NC)C(=O)O; NMeM = CN[C@@H](CCSC)C(=O)O; NMeA = CN[C@@H](C)C(=O)O; Orn = NCCC[C@H](N)C(=O)O; Dab = NCC[C@H](N)C(=O)O; Dap = NC[C@H](N)C(=O)O; ξP = O=C(O)C1CCCN1; ξC = NC(CS)C(=O)O; Sar = CNCC(=O)O
Experiments:
[1] = target: T1, Human PD-L1/PD-1 (Homo sapiens, UniProt Q9NZQ7); test: HTRF PD-1-Ig/PD-L1-His binding assay (human PD-L1); settings: cluster symbol; read-out: HTRF IC50 cluster
T1 construct: made in house; host or cells: HEK293T
T1 sequence (Q9NZQ7 with tags, fused parts or gaps): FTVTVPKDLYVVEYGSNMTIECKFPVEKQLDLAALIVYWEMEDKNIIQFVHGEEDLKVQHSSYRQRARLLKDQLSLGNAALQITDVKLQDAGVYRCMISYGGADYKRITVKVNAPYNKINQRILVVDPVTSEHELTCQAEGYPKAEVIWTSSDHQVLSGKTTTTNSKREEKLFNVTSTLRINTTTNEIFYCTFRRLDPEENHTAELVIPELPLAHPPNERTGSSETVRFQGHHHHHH
Method in brief: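 The time-resolved fluorescence signal comes from Eu-cryptate anti-Ig (1 nM) and APC anti-His (20 nM) antibodies bound to a PD-1-Ig/PD-L1-His complex. Both partners lack transmembrane regions.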

[2] = target: T2, LK35.2-hPD-L1 cells / PE-labeled PD-1-Ig (Homo sapiens, UniProt Q9NZQ7); test: LK35.2-hPD-L1 cell binding high-content screening assay; type: cell-based; settings: cluster symbol, read-out: CBA IC50 cluster
T2 construct: expressed in transfected cells; host or cells: LK35.2 mouse B cell line
T2 sequence (Q9NZQ7 19-290): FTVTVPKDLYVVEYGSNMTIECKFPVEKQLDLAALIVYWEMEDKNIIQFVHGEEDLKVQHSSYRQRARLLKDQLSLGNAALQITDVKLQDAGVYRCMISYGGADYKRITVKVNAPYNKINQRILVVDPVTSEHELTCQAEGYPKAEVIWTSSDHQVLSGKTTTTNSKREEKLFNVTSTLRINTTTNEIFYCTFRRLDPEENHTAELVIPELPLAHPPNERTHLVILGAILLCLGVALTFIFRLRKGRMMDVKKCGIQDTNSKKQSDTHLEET
Method in brief: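 Mouse LK35.2 B cells stably overexpressing human PD-L1 were cultured overnight in RPMI with 10% FCS, then given compound and PE-labeled human PD-1-Ig (1 nM final) for 1 h at 37 °C. After three dPBS washes, bound fluorescence was quantified by high-content imaging.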

[3] = cell binding assay, cell line not given
[4] = cell line of CBA not given (LK35.2-hPD-L1 or 293T-hPD-L1)

Row | IC50 [1] | IC50 [2, 3] | IC50 [2, 4] | SMILES
1 | 0.385 to 6.74 nM | 4.78 to 72.9 nM |  | CCCC[C@H]1C(=O)N(C)[C@@H](CCCC)C(=O)N[C@@H](CN)C(=O)N[C@H](C(=O)NCC(N)=O)CSCC(=O)N[C@@H](Cc2ccc(O)cc2)C(=O)N(C)[C@@H](C)C(=O)N[C@@H](CC(N)=O)C(=O)N2CCC[C@H]2C(=O)N[C@@H](CN)C(=O)N[C@@H](CC(C)C)C(=O)N2C[C@H](O)C[C@H]2C(=O)N[C@@H](Cc2c[nH]c3ccccc23)C(=O)N[C@@H](CCN)C(=O)N[C@@H](Cc2c[nH]c3ccccc23)C(=O)N1C [Example 5059] ({CH2CO}-Y[NMeA]NP[Dap]L[Hyp]W[Dab]W[NMeNle][NMeNle][Dap]CG-NH2; thioether N-14)
2 | 0.385 to 6.74 nM | 0.158 to 4.71 nM |  | CCCC[C@H]1C(=O)N[C@@H](CCCNC(=N)N)C(=O)NC(C(=O)NCC(N)=O)CSCC(=O)N[C@@H](Cc2ccc(O)cc2)C(=O)N(C)[C@@H](C)C(=O)N[C@@H](CC(N)=O)C(=O)N2CCC[C@H]2C(=O)N[C@@H](CO)C(=O)N[C@@H](CC(C)C)C(=O)N2C[C@H](O)C[C@H]2C(=O)N[C@@H](Cc2c[nH]c3ccccc23)C(=O)N[C@@H](CO)C(=O)N[C@@H](Cc2csc3ccccc23)C(=O)N(C)[C@@H](CCSC)C(=O)N1C (stereo partly shown) [Example 9099] ({CH2CO}-Y[NMeA]NPSL[Hyp]WS[Bta][NMeM][NMeNle]R[ξC]G-NH2; thioether N-14)
3 | 0.385 to 6.74 nM | 0.158 to 4.71 nM |  | CCCC[C@H]1C(=O)N(C)[C@@H](CCCC)C(=O)N[C@@H](CN)C(=O)N[C@H](C(=O)NCC(N)=O)CSCC(=O)N[C@@H](Cc2ccc(O)cc2)C(=O)N(C)[C@@H](C)C(=O)N[C@@H](CC(N)=O)C(=O)N2CCC[C@H]2C(=O)N[C@@H](CN)C(=O)N[C@@H](CC(C)C)C(=O)N2C[C@H](O)C[C@H]2C(=O)N[C@@H](Cc2c[nH]c3ccccc23)C(=O)N[C@@H](CO)C(=O)N[C@@H](Cc2c[nH]c3ccccc23)C(=O)N1C [Example 5063] ({CH2CO}-Y[NMeA]NP[Dap]L[Hyp]WSW[NMeNle][NMeNle][Dap]CG-NH2; thioether N-14)
4 | 0.385 to 6.74 nM | 0.158 to 4.71 nM |  | CCCC[C@H]1C(=O)N(C)[C@@H](CCCC)C(=O)N[C@@H](CCCNC(=N)N)C(=O)NC(C(=O)NCC(N)=O)CSCC(=O)N[C@@H](Cc2ccc(O)cc2)C(=O)N(C)[C@@H](C)C(=O)N[C@@H](CC(N)=O)C(=O)N2CCC[C@H]2C(=O)N[C@@H](Cc2cnc[nH]2)C(=O)N[C@@H](CC(C)C)C(=O)N2[C@@H](C)CC[C@H]2C(=O)N[C@@H](Cc2c[nH]c3ccccc23)C(=O)N[C@@H](CO)C(=O)N[C@@H](Cc2c[nH]c3ccccc23)C(=O)N1C (stereo partly shown) [Example 9014]
5 | 0.385 to 6.74 nM | 4.78 to 72.9 nM |  | CCCC[C@H]1C(=O)N(C)[C@@H](CCCC)C(=O)N[C@@H](CC(C)C)C(=O)N[C@H](C(=O)NCC(N)=O)CSCC(=O)N[C@@H](Cc2ccc(O)cc2)C(=O)N(C)[C@@H](C)C(=O)N[C@@H](CCN)C(=O)N2CCC[C@H]2C(=O)N[C@@H](Cc2c[nH]cn2)C(=O)N[C@@H](CCC(=O)O)C(=O)N2C[C@H](O)C[C@H]2C(=O)N[C@@H](Cc2c[nH]c3ccccc23)C(=O)N[C@@H](CCN)C(=O)N[C@@H](Cc2c[nH]c3ccccc23)C(=O)N1C [Example 5090] ({CH2CO}-Y[NMeA][Dab]PHE[Hyp]W[Dab]W[NMeNle][NMeNle]LCG-NH2; thioether N-14)

More lines, now with the values behind:

Row | SMILES | IC50 [1] | IC50 [2, 3] | IC50 [2, 4]
6 | CCCC[C@H]1C(=O)N(C)[C@@H](CCCC)C(=O)N[C@@H](CCN)C(=O)N[C@H](C(=O)NCC(N)=O)CSCC(=O)N[C@@H](Cc2ccc(O)cc2)C(=O)N(C)[C@@H](C)C(=O)N[C@@H](CC(N)=O)C(=O)N2CCC[C@H]2C(=O)N[C@@H](Cc2cnc[nH]2)C(=O)N[C@@H](CCC(=O)O)C(=O)N2C[C@H](O)C[C@H]2C(=O)N[C@@H](Cc2c[nH]c3ccccc23)C(=O)N[C@@H](CCN)C(=O)N[C@@H](Cc2c[nH]c3ccccc23)C(=O)N1C [Example 5028] ({CH2CO}-Y[NMeA]NPHE[Hyp]W[Dab]W[NMeNle][NMeNle][Dab]CG-NH2; thioether N-14) | 0.385 to 6.74 nM | 0.158 to 4.71 nM | 
7 | CCCC[C@H]1C(=O)N(C)[C@@H](CCCC)C(=O)N[C@@H](C)C(=O)N[C@H](C(=O)NCC(N)=O)CSCC(=O)N[C@@H](Cc2ccc(O)cc2)C(=O)N(C)[C@@H](C)C(=O)N[C@@H](CC(N)=O)C(=O)N2CCC[C@H]2C(=O)N[C@@H](Cc2cnc[nH]2)C(=O)N[C@@H](CC(C)C)C(=O)N2CCC[C@H]2C(=O)N[C@@H](Cc2c[nH]c3ccccc23)C(=O)N[C@@H](Cc2ccc(O)cc2)C(=O)N[C@@H](Cc2csc3ccccc23)C(=O)N1C [Example 1050] ({CH2CO}-Y[NMeA]NPHLPWY[Bta][NMeNle][NMeNle]ACG-NH2; thioether N-14) | > 30.5 nM |  | 4.78 to 72.9 nM
8 | CCCC[C@H]1C(=O)N(C)[C@@H](CCCC)C(=O)N[C@@H](CCN)C(=O)N[C@H](C(=O)NCC(N)=O)CSCC(=O)N[C@@H](Cc2ccc(O)cc2)C(=O)N(C)[C@@H](C)C(=O)N[C@@H](CC(N)=O)C(=O)N2CCC[C@H]2C(=O)N[C@@H](CN)C(=O)N[C@@H](CCC(N)=O)C(=O)N2C[C@H](O)C[C@H]2C(=O)N[C@@H](Cc2c[nH]c3ccccc23)C(=O)N[C@@H](CCN)C(=O)N[C@@H](Cc2c[nH]c3ccccc23)C(=O)N1C [Example 5044] ({CH2CO}-Y[NMeA]NP[Dap]Q[Hyp]W[Dab]W[NMeNle][NMeNle][Dab]CG-NH2; thioether N-14) | 0.385 to 6.74 nM | 0.158 to 4.71 nM | 
9 | CCCC[C@H]1C(=O)N[C@@H](CCCNC(=N)N)C(=O)N[C@H](C(=O)NCC(N)=O)CSCC(=O)N[C@@H](Cc2ccccc2)C(=O)N(C)[C@@H](C)C(=O)N[C@@H](CC(N)=O)C(=O)N2CCC[C@H]2C(=O)N[C@@H](Cc2cnc[nH]2)C(=O)N[C@@H](CC(C)C)C(=O)N(C)CC(=O)N[C@@H](Cc2c[nH]c3ccccc23)C(=O)N[C@@H](CO)C(=O)N[C@@H](Cc2c[nH]c3ccccc23)C(=O)N[C@@H](Cc2c(F)c(F)c(F)c(F)c2F)C(=O)N1C [Example 1058] ({CH2CO}-F[NMeA]NPHL[Sar]WSW[Phe(F5)][NMeNle]RCG-NH2; thioether N-14) | > 30.5 nM |  | > 74.3 nM
10 | CCCC[C@H]1C(=O)N(C)[C@@H](CCCC)C(=O)N[C@@H](CCCNC(=N)N)C(=O)N[C@H](C(=O)NCC(N)=O)CSCC(=O)N[C@@H](Cc2cccc(OC)c2)C(=O)N(C)[C@@H](C)C(=O)N[C@@H](CC(N)=O)C(=O)N2CCC[C@H]2C(=O)N[C@@H](Cc2cnc[nH]2)C(=O)N[C@@H](CC(C)C)C(=O)N(C)CC(=O)N[C@@H](Cc2c[nH]c3ccccc23)C(=O)N[C@@H](CO)C(=O)N[C@@H](Cc2c[nH]c3ccccc23)C(=O)N1C [Example 1098] ({CH2CO}-[Phe(3-OMe)][NMeA]NPHL[Sar]WSW[NMeNle][NMeNle]RCG-NH2; thioether N-14) | 6.76 to 30.3 nM |  | 4.78 to 72.9 nM
11 | CCCC[C@H]1C(=O)N(C)[C@@H](CCCC)C(=O)N[C@@H](CCCN)C(=O)N[C@H](C(=O)NCC(N)=O)CSCC(=O)N[C@@H](Cc2ccc(O)cc2)C(=O)N(C)[C@@H](C)C(=O)N[C@@H](CC(N)=O)C(=O)N2CCC[C@H]2C(=O)N[C@@H](CN)C(=O)N[C@@H](CC(=O)O)C(=O)N2C[C@H](O)C[C@H]2C(=O)N[C@@H](Cc2c[nH]c3ccccc23)C(=O)N[C@@H](CCN)C(=O)N[C@@H](Cc2csc3ccccc23)C(=O)N1C [Example 1186] ({CH2CO}-Y[NMeA]NP[Dap]D[Hyp]W[Dab][Bta][NMeNle][NMeNle][Orn]CG-NH2; thioether N-14) | 0.385 to 6.74 nM |  | 0.158 to 4.71 nM
12 | CCCC[C@H]1C(=O)N(C)CC(=O)N[C@@H](CC(=O)O)C(=O)N[C@@H](C(C)C)C(=O)N(C)[C@@H](Cc2ccccc2)C(=O)N[C@@H](Cc2ccc(O)cc2)C(=O)N(C)CC(=O)N[C@@H](Cc2c[nH]c3ccccc23)C(=O)N[C@@H](Cc2ccc3ccccc3c2)C(=O)N[C@@H](CC(C)C)C(=O)N[C@H](C(=O)NCC(N)=O)CSCC(=O)N[C@@H](Cc2ccccc2)C(=O)N(C)[C@@H](Cc2ccccc2)C(=O)N1C [Example 3538] ({CH2CO}-F[NMeF][NMeNle][Sar]DV[NMeF]Y[Sar]W[2Nal]LCG-NH2; thioether N-13) | > 30.5 nM | > 74.3 nM | 
13 | CCCC[C@H]1C(=O)N(C)CC(=O)N[C@@H](CC(=O)O)C(=O)N[C@@H](C(C)C)C(=O)N(C)[C@@H](Cc2ccccc2)C(=O)N[C@@H](Cc2ccc(F)cc2)C(=O)N(C)CC(=O)N[C@@H](Cc2c[nH]c3ccccc23)C(=O)N[C@@H](Cc2ccc(O)cc2)C(=O)N[C@@H](CC(C)C)C(=O)N[C@H](C(=O)NCC(N)=O)CSCC(=O)N[C@@H](Cc2ccccc2)C(=O)N(C)[C@@H](Cc2ccccc2)C(=O)N1C [Example 3077] ({CH2CO}-F[NMeF][NMeNle][Sar]DV[NMeF][Phe(4-F)][Sar]WYLCG-NH2; thioether N-13) | > 30.5 nM |  | > 74.3 nM
14 | CCCC[C@@H]1C(=O)N(C)[C@H](CCCC)C(=O)N[C@@H](CCCN)C(=O)N[C@@H](C(=O)NCC(N)=O)CSCC(=O)N[C@@H](Cc2ccc(O)cc2)C(=O)N2CCCC2C(=O)N[C@H](CC(=O)O)C(=O)N2CCC[C@H]2C(=O)N[C@H](Cc2c[nH]cn2)C(=O)N[C@@H](CCC(=O)O)C(=O)N2CCCC2C(=O)N[C@H](Cc2c[nH]c3ccccc23)C(=O)N[C@@H](CCN)C(=O)N[C@@H](Cc2c[nH]c3ccccc23)C(=O)N1C (stereo partly shown) [Example 1216] ({CH2CO}-Y[ξP][dD]P[dH]E[ξP][dW][Dab]W[dNMeNle][dNMeNle][Orn][dC]G-NH2; thioether N-14) | 6.76 to 30.3 nM |  | > 74.3 nM

From patent US9850283B2, “Macrocyclic inhibitors of the PD-1/PD-L1 and CD80(B7-1)/PD-L1 protein/protein interactions” (BRISTOL-MYERS SQUIBB COMPANY, priority 2013, dated 2017)
